Measurements taken from PubChem BioAssay (NCI).
Where “and” joins values, the source holds several entries; their conditions need not be identical. Identical values can stand only once.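 Assay format: 96-well plates, 48-hour exposure. Abbreviation: GI50, concentration required for 50% inhibition of growth. TGI denotes the concentration required for complete inhibition of growth.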

Experiments:
Assay in all cases: NCI tumour cell line growth inhibition, 48 h
UO-31 renal = tested on: UO-31 renal
SR leukemia = tested on: SR leukemia
EKVX NSCLC = tested on: EKVX NSCLC
MDA-MB-231 breast = tested on: MDA-MB-231 breast
MOLT-4 leukemia = tested on: MOLT-4 leukemia
SNB-19 CNS = tested on: SNB-19 CNS
SK-OV-3 ovarian = tested on: SK-OV-3 ovarian
SF-539 CNS = tested on: SF-539 CNS
SK-MEL-28 melanoma = tested on: SK-MEL-28 melanoma
HT29 colon = tested on: HT29 colon

Row | Structure (SMILES) | GI50 (UO-31 renal) | TGI (UO-31 renal) | GI50 (SR leukemia) | TGI (SR leukemia) | GI50 (EKVX NSCLC) | TGI (EKVX NSCLC) | GI50 (MDA-MB-231 breast) | TGI (MDA-MB-231 breast) | GI50 (MOLT-4 leukemia) | TGI (MOLT-4 leukemia) | GI50 (SNB-19 CNS) | TGI (SNB-19 CNS) | GI50 (SK-OV-3 ovarian) | TGI (SK-OV-3 ovarian) | GI50 (SF-539 CNS) | TGI (SF-539 CNS) | GI50 (SK-MEL-28 melanoma) | TGI (SK-MEL-28 melanoma) | GI50 (HT29 colon) | TGI (HT29 colon)
1 | CCC(C)[C@H]1O[C@]2(CC[C@@H]1C)C[C@@H]1C[C@@H](C/C=C(\C)[C@@H](OC3C[C@H](OC)C(O[C@H]4C[C@H](OC)[C@@H](O)[C@H](C)O4)[C@H](C)O3)[C@@H](C)/C=C/C=C3\CO[C@@H]4[C@H](O)C(C)=C[C@@H](C(=O)O1)[C@]34O)O2 (some centres not stated) | 1850 nM | 10.2 µM | 5790 nM | 33.7 µM | 2950 nM | 15.1 µM | 2310 nM | 6.85 µM | 4770 nM | 20.2 µM | 3.75 µM | 15.6 µM | 2 µM | 5.04 µM | 1910 nM | 3.96 µM | 2670 nM | 7.21 µM | 2400 nM | 5.81 µM
2 | CN(c1ncccc1CNc1nc(Nc2ccc3c(c2)CC(=O)N3)ncc1C(F)(F)F)S(C)(=O)=O | 2880 nM and 2820 nM | > 28.7 µM | 606 nM and 1540 nM | 4.91 µM and 5.26 µM | 1840 nM and 2640 nM | 8.23 µM and > 10 µM | 2010 nM and 2330 nM | > 100 µM | 2900 nM and 2670 nM | 7.47 µM and 7.55 µM | 2.75 µM and 2.89 µM | > 100 µM | 5.04 µM and 4.61 µM | > 100 µM | 1960 nM and 2350 nM | 5.18 µM and 6.93 µM | 2070 nM and 2920 nM | 6.58 µM and > 10 µM | 1750 nM and 2330 nM | 4.79 µM and 8.54 µM
3 | COc1cc(Nc2nc3cc(N)cc(N)c3nc2-c2ccccc2)cc(OC)c1OC | 15100 nM | 90.3 µM | 3310 nM | 16 µM | 17600 nM | 47.4 µM | 11100 nM | 29.2 µM | 2570 nM | 18 µM | 33.1 µM | > 100 µM | 23 µM | 57.8 µM | 14800 nM | 28.9 µM | 1450 nM | 20.7 µM | – | 35 µM
4 | CC(C)(Br)C(=O)N1CCN(C(c2ccccc2)c2ccccc2)CC1 | – | > 100 µM | – | > 100 µM | – | > 100 µM | – | > 100 µM | – | > 100 µM | – | > 100 µM | – | > 100 µM | – | > 100 µM | – | > 100 µM | – | > 100 µM
5 | O=Nc1ccc(O)c(=O)cc1 | 1150 nM | 2.69 µM | 954 nM | 9.19 µM | 6930 nM | 23.4 µM | 2310 nM | 8.79 µM | 821 nM | 20.8 µM | 13.5 µM | 27.3 µM | 16.2 µM | 37.3 µM | 2670 nM | 7.48 µM | 2260 nM | 7.02 µM | 2450 nM | 10.7 µM
6 | CCN1C(=S)N(c2ccccc2)C2NC(=S)N(/N=C/C=C/c3ccccc3OC)C21 (configuration not stated) | 675 nM | > 100 µM | 300 nM | – | 505 nM | > 100 µM | 544 nM | > 27.4 µM | 548 nM | > 100 µM | 0.496 µM | > 100 µM | 0.647 µM | > 100 µM | 253 nM | 0.732 µM | 1470 nM | > 100 µM | 329 nM | –
7 | COc1ccc(/C=C(/C#N)C(N)=O)c(OC)c1 | – | 26.8 µM | – | > 100 µM | – | > 100 µM | – | > 100 µM | – | > 100 µM | – | > 100 µM | – | > 100 µM | – | > 100 µM | – | > 100 µM | – | > 100 µM
8 | NS(=O)(=O)c1ccc(Nc2cc(-c3cccc(O)c3)[nH]n2)cc1 | > 25000 nM | > 25 µM | 24200 nM | > 25 µM | > 25000 nM | > 25 µM | 18000 nM | > 25 µM | 13400 nM | > 25 µM | > 25 µM | > 25 µM | > 25 µM | > 25 µM | 20500 nM | > 25 µM | > 25000 nM | > 25 µM | > 25000 nM | > 25 µM
9 | O=S(=O)(NCCCNc1nccc(-c2c(-c3ccc(O)cc3)nc3sccn23)n1)c1ccc(F)cc1 | 2330 nM | 7.3 µM | 2070 nM | > 100 µM | 2910 nM | 9.02 µM | 1820 nM | > 100 µM | 2470 nM | 8.81 µM | 4.27 µM | > 100 µM | 2.12 µM | 8.88 µM | 2040 nM | 13.9 µM | 52.8 nM | 6.23 µM | 1520 nM | 17.2 µM
10 | CCN(Cc1ccc(C)cc1)c1ccc(CO)c(Cl)c1 | 3810 nM | 17.7 µM | 17600 nM | 46.8 µM | 12900 nM | 29.4 µM | 12500 nM | 29.6 µM | 17000 nM | 45.4 µM | 14.5 µM | 31.1 µM | 4.23 µM | 16.8 µM | 14200 nM | 28.3 µM | 13300 nM | 26.2 µM | 2490 nM | 14.7 µM
